From PubChem BioAssay (NCI) come the findings set out here.

Some test systems named below: OVCAR-3 ovarian; SF-539 CNS; NCI/ADR-RES ovarian; COLO 205 colon; HCT-116 colon; EKVX NSCLC; NCI-H23 lung; SF-295 CNS; U251 CNS; OVCAR-4 ovarian.
Assay in all cases: growth of human tumour cells (NCI), 48 h

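A five-concentration, 48-hour dose response in 96-well plates underlies each endpoint, interpolated linearly between surrounding concentrations. GI50 marks 50% less growth. At the TGI there is no net growth.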

For `CC1OC(OC2C[C@](O)(C(=O)CBr)Cc3c(O)c4c(c(O)c32)C(=O)c2ccccc2C4=O)C(F)C(O)C1O` (stereo not given in full), the TGI in the assay with OVCAR-3 ovarian is 42.9 µM; in the assay with SF-539 CNS, 30.4 µM; with NCI/ADR-RES ovarian, more than 67.7 µM; with COLO 205 colon it was 28.8 µM; in the assay on HCT-116 colon, more than 68 µM; in the assay with EKVX NSCLC, more than 100 µM. Further, the TGI with NCI-H23 lung was 36.2 µM; in the assay on SF-295 CNS it was 27.5 µM; with U251 CNS, more than 74.7 µM; with OVCAR-4 ovarian, 97.9 µM.

Turning to `CCOC(=O)/C=C/c1c[nH]c(=O)[nH]c1=O`, the TGI in the assay on OVCAR-3 ovarian, with SF-539 CNS, in the assay on NCI/ADR-RES ovarian, in the assay on COLO 205 colon, with HCT-116 colon and in the assay on EKVX NSCLC was more than 75 µM in each case. Also, the TGI in the assay with NCI-H23 lung, in the assay with SF-295 CNS, with U251 CNS and in the assay with OVCAR-4 ovarian was more than 75 µM in each case.

For `CCCCCCCCCC[N+](C)(C)C`, the GI50 with OVCAR-3 ovarian is 1.68 µM; in the assay with SF-539 CNS, 2.17 µM; in the assay with NCI/ADR-RES ovarian it was 15.1 µM; in the assay with COLO 205 colon, 1.28 µM; with HCT-116 colon, 2.34 µM; with EKVX NSCLC it was 3.66 µM. For the same molecule, the GI50 in the assay on NCI-H23 lung was 2 µM; with SF-295 CNS, 1.97 µM; with U251 CNS it was 1.04 µM; in the assay with OVCAR-4 ovarian it was 2.2 µM. Moreover, the TGI was 5.4 µM with OVCAR-3 ovarian; 5.9 µM in the assay with SF-539 CNS; 49.6 µM in the assay on NCI/ADR-RES ovarian; 2.59 µM with COLO 205 colon; 10.5 µM in the assay on HCT-116 colon; 30.5 µM with EKVX NSCLC. Moreover, the TGI with NCI-H23 lung is 6.34 µM; in the assay on SF-295 CNS it was 5.81 µM; in the assay with U251 CNS, 2.29 µM; in the assay with OVCAR-4 ovarian it was 14.5 µM.

In the case of `CCCCCCC(=O)c1ccc2ccccc2c1O`, the TGI with SF-539 CNS, in the assay with NCI/ADR-RES ovarian, with COLO 205 colon, in the assay on HCT-116 colon, in the assay on EKVX NSCLC and in the assay with NCI-H23 lung was more than 100 µM each time. Besides, the TGI with SF-295 CNS, in the assay on U251 CNS and in the assay on OVCAR-4 ovarian was more than 100 µM throughout.

`N[C@@H](Cc1ccc2oc3cc(=O)c4ccccc4c-3nc2c1)C(=O)O`: the TGI in the assay with OVCAR-3 ovarian is more than 100 µM; with SF-539 CNS it was more than 100 µM; in the assay on NCI/ADR-RES ovarian, more than 100 µM; in the assay with COLO 205 colon, 38.9 µM; with HCT-116 colon, more than 100 µM; in the assay with EKVX NSCLC it was more than 100 µM. Moreover, the TGI was 51.3 µM in the assay on NCI-H23 lung, 64 µM in the assay on SF-295 CNS, more than 100 µM in the assay on U251 CNS and more than 100 µM in the assay on OVCAR-4 ovarian.

For `CSS(C)(=O)=O`, the TGI with OVCAR-3 ovarian is 41.6 µM; in the assay with SF-539 CNS it was 37 µM; in the assay with NCI/ADR-RES ovarian it was more than 100 µM; in the assay with COLO 205 colon, 40.1 µM; with HCT-116 colon it was more than 100 µM; in the assay on EKVX NSCLC, 66.2 µM. The TGI in the assay with NCI-H23 lung was 50.5 µM; with SF-295 CNS it was 54.5 µM; with U251 CNS, more than 100 µM; in the assay with OVCAR-4 ovarian, 64.3 µM.

For `COc1ccc2c(c1)C=C(C(C)(C)C)NS2(=O)=O`, the TGI in the assay with OVCAR-3 ovarian, in the assay with SF-539 CNS, with COLO 205 colon, with HCT-116 colon, with EKVX NSCLC and with NCI-H23 lung was more than 100 µM in each case. Further, the TGI in the assay on SF-295 CNS, in the assay on U251 CNS and in the assay on OVCAR-4 ovarian was more than 100 µM each time.

Turning to `CC(c1ccccc1)C(O)S(=O)(=O)O` (stereo not given), the TGI in the assay on OVCAR-3 ovarian, in the assay on SF-539 CNS, in the assay on COLO 205 colon, with HCT-116 colon, with EKVX NSCLC and with NCI-H23 lung was more than 100 µM in each case. Further, the TGI in the assay with SF-295 CNS, in the assay on U251 CNS and in the assay on OVCAR-4 ovarian was more than 100 µM in each case.

Regarding `C=CCOC1OC(CS(=O)(=O)O)C(OC(C)=O)C(OC(C)=O)C1OC(C)=O` (stereo not given), the TGI in the assay with OVCAR-3 ovarian, in the assay on NCI/ADR-RES ovarian, in the assay with COLO 205 colon, with HCT-116 colon, in the assay on NCI-H23 lung and with SF-295 CNS was more than 100 µM each time. The TGI with U251 CNS and with OVCAR-4 ovarian was more than 100 µM each time.

For the molecule `COc1cc2c3cc1Oc1c(OC)c(OC)cc4c1C(Cc1ccc(O)c(c1)-c1cc(ccc1OC)CC3N(C)CC2)N(C)CC4` (stereo not given), the TGI in the assay with OVCAR-3 ovarian was more than 100 µM; with SF-539 CNS, 23.4 µM; in the assay on NCI/ADR-RES ovarian it was 73.9 µM; with COLO 205 colon it was more than 100 µM; in the assay on HCT-116 colon it was more than 100 µM; in the assay on EKVX NSCLC, 91.1 µM. Moreover, the TGI in the assay with NCI-H23 lung is 51.5 µM; in the assay on SF-295 CNS, 39.4 µM; in the assay on U251 CNS, more than 100 µM; in the assay on OVCAR-4 ovarian, more than 100 µM.

Take `COc1ccc(-c2c3c(nc4[nH]c(=S)[nH]c(=S)c24)CCCC3)cc1OC`: the TGI in the assay on OVCAR-3 ovarian is more than 100 µM; in the assay with SF-539 CNS, 28.6 µM; in the assay with NCI/ADR-RES ovarian, 66.1 µM; in the assay with COLO 205 colon it was more than 100 µM; with HCT-116 colon it was more than 100 µM; in the assay on EKVX NSCLC, 76.9 µM. Moreover, the TGI is more than 100 µM in the assay with NCI-H23 lung, 38.8 µM with SF-295 CNS, 39.6 µM in the assay with U251 CNS and more than 100 µM in the assay with OVCAR-4 ovarian.

With `c1ccc(N2N=C3N(c4ccccc4)C2N3c2ccccc2)cc1`, the TGI is more than 100 µM in the assay with OVCAR-3 ovarian; 74.9 µM with SF-539 CNS; more than 100 µM in the assay on NCI/ADR-RES ovarian; 49.1 µM in the assay with COLO 205 colon; more than 100 µM in the assay on HCT-116 colon; more than 100 µM with EKVX NSCLC. The TGI with NCI-H23 lung, in the assay on SF-295 CNS, with U251 CNS and in the assay on OVCAR-4 ovarian was more than 100 µM throughout.

Turning to `COc1ccc(OCC(C)(C)O)cc1`, the TGI with OVCAR-3 ovarian, with SF-539 CNS, in the assay on NCI/ADR-RES ovarian, in the assay on COLO 205 colon, in the assay with HCT-116 colon and in the assay on EKVX NSCLC was more than 100 µM throughout. For the same molecule, the TGI in the assay with NCI-H23 lung, with SF-295 CNS, with U251 CNS and with OVCAR-4 ovarian was more than 100 µM in each case.

For `CC(C)(C)C(=O)CC(=O)C(F)(F)C(F)(F)C(F)(F)F.[Ag]`, the TGI in the assay with OVCAR-3 ovarian is 27.7 µM; in the assay on SF-539 CNS, 57.6 µM; with NCI/ADR-RES ovarian it was 48.6 µM; in the assay with COLO 205 colon, 57.9 µM; in the assay on HCT-116 colon it was 44.1 µM; in the assay with EKVX NSCLC, 55.3 µM. The TGI is 33.1 µM in the assay on NCI-H23 lung, 39.2 µM in the assay on SF-295 CNS, 52.8 µM in the assay on U251 CNS and 30.5 µM with OVCAR-4 ovarian.

Turning to `COc1ccc2c(c1)c(=O)c1c(NCCCN(C)C)ccc3ncn2c31`, the TGI with OVCAR-3 ovarian was 26.7 µM; in the assay on SF-539 CNS it was 17 µM; in the assay with NCI/ADR-RES ovarian, 16.4 µM; with COLO 205 colon, 18.6 µM; in the assay with HCT-116 colon, 13 µM; in the assay with EKVX NSCLC it was 27 µM. Besides, the TGI turned out to be 21 µM with NCI-H23 lung, 15.2 µM in the assay with SF-295 CNS, 5.93 µM in the assay on U251 CNS and 13 µM with OVCAR-4 ovarian.
